Experimental findings from patent US20100234430A1, “METHODS AND PHARMACEUTICAL FORMULATIONS FOR PROTECTING PHARMACEUTICAL COMPOUNDS FROM ACIDIC ENVIRONMENTS” (priority 2001, published 2010) are described below.

Each structure is given as a SMILES string.

A short description of series [1]: Acid neutralization test of tablets, time for pH to rise to 7 (Example 1). It counts as physicochemical. To be noted: 840 mg tablet, basket 75 rpm, 50 ml SGF + 50 ml water. On the procedure:
840 mg of each of magnesium hydroxide, tromethamine, and carbicarb were separately compressed into tablets utilizing a carver press having a 13 mm die at a 1 second dwell time and 500 pounds of compression force. Also, a first mixture containing 420 mg of magnesium hydroxide and 420 mg of tromethamine was also compressed into tablet-form using the method described above. Additionally, a second mixture containing 420 mg of magnesium hydroxide and 420 mg of carbicarb was compressed into tablet-form as previously described.
Each of the five different preparations was tested separately in the following manner. Tablets of each preparation were placed in a USP dissolution apparatus basket which was then attached to a spindle. The stirring component of the apparatus was set to rotate the basket at a speed of approximately 75 rpm. The loaded, rotating basket was then immersed into a beaker containing 50 ml of SGF and 50 ml of distilled de-ionized water. The pH of the medium in the beaker was monitored continuously throughout the test procedure utilizing a micro pH electrode.

Series [2] can be described thus: Degradation of lansoprazole as a function of pH at 37 degrees C. It counts as physicochemical. To be noted: for half-life: buffer. An excerpt:
For example, lansoprazole is a substituted benzimidaole that is an acid labile pharmaceutical compound that inhibits gastric acid secretions. The affect of gastric pH on the degradation of an acid-labile drug such as lansoprazole is conveyed in Table 1. The data shown in Table 1 was collected at 37 degrees C., wherein “K” reflects the first order degradation constant.

In the case of `[Mg+2].[OH-].[OH-]` [Magnesium hydroxide], the “Time to Raise the pH of SGF to 7 at 37 degrees C.” value in series [1] came to 565 seconds.
The same measure, in the same setting: then `NC(CO)(CO)CO` [Tromethamine (TRIS), Tromethamine], with 75 seconds.
A word on the half-life: it is how long it takes for the measured level to halve. A lower half-life goes with rapid decline. In the case of `Cc1c(OCC(F)(F)F)ccnc1C[S+]([O-])c1nc2ccccc2[nH]1` (centres unmarked) [lansoprazole], the half-life in series [2] (pH 5, 37 degrees C.) was 0.52 h; in series [2] (pH 6, 37 degrees C.) it was 3.4 h; in series [2] (pH 7, 37 degrees C.), 18 h; in series [2] (pH 8, 37 degrees C.) it was 37 h; in series [2] (pH 9, 37 degrees C.), 78 h. The “% Drug Remaining After 30 Minutes” value in series [2] (pH 5, 37 degrees C.) is on record as 51.37%; in series [2] (pH 6, 37 degrees C.), 90.30%; in series [2] (pH 7, 37 degrees C.) it was 98.10%; in series [2] (pH 8, 37 degrees C.), 99.10%; in series [2] (pH 9, 37 degrees C.) it was 99.57%. For the same compound, the “K (first order degradation constant)” value in series [2] (pH 5, 37 degrees C.) stood at 1.33 hr.^−1; in series [2] (pH 6, 37 degrees C.), 0.20 hr.^−1; in series [2] (pH 7, 37 degrees C.) it was 0.04 hr.^−1; in series [2] (pH 8, 37 degrees C.), 0.02 hr.^−1; in series [2] (pH 9, 37 degrees C.), 0.01 hr.^−1.
